Source: PubChem BioAssay AID330 (DTP/NCI, 2004)
Values joined by “and” are separate entries in the source; they are usually repeats but may differ in a detail not shown here. Equal entries are not always repeated. Toxic doses and inconclusive results are not listed. The calls were made as follows: active = survival T/C of 150% or more; inactive = T/C below 125% in these data.

System: P388 leukemia ip, CD2F1 mice, survival T/C
Assay: NCI In Vivo Anticancer Drug Screen. Data for tumor model P388 Leukemia (intraperitoneal) in CD2F1 (CDF1) mice
Settings: endpoint: median survival time, higher = longer survival
Method in brief: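 Mice carrying the transplanted tumor received test compound or vehicle. Survival was recorded in each group, and the value is the treated-group measurement divided by that of the vehicle-treated control group.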

Measured: T/C

O=C1OC(C(O)CO)C(O)=C1O (stereo not drawn)
inactive: dose: 0.05 mg/kg/injection, schedule: Q01DX005 (iv), vehicle: saline 108 % of control | dose: 0.05 mg/kg/injection, schedule: Q01DX009 (im), vehicle: saline 100 % of control | dose: 0.05 mg/kg/injection, schedule: Q01DX009 (oral), vehicle: saline 100 % of control | dose: 0.1 mg/kg/injection, schedule: Q01DX005 (iv), vehicle: saline 117 % of control | dose: 0.1 mg/kg/injection, schedule: Q01DX009 (im), vehicle: saline 100 % of control | dose: 0.1 mg/kg/injection, schedule: Q01DX009 (oral), vehicle: saline 100 % of control and 104 % of control | dose: 0.1 mg/kg/injection, schedule: Q01DX009 (sc), vehicle: saline 109 % of control | dose: 0.1 mg/kg/injection, schedule: Q08HX010 (ip), vehicle: saline 99 % of control | dose: 0.2 mg/kg/injection, schedule: Q01DX005 (iv), vehicle: saline 104 % of control | dose: 0.2 mg/kg/injection, schedule: Q01DX009 (im), vehicle: saline 100 % of control | dose: 0.2 mg/kg/injection, schedule: Q01DX009 (oral), vehicle: saline 100 % of control | dose: 0.2 mg/kg/injection, schedule: Q01DX009 (sc), vehicle: saline 109 % of control | dose: 0.2 mg/kg/injection, schedule: Q08HX010 (ip), vehicle: saline 99 % of control | dose: 0.39 mg/kg/injection, schedule: Q01DX005 (iv), vehicle: saline 113 % of control | dose: 0.39 mg/kg/injection, schedule: Q01DX009 (im), vehicle: saline 104 % of control | dose: 0.39 mg/kg/injection, schedule: Q01DX009 (oral), vehicle: saline 100 % of control and 108 % of control | dose: 0.39 mg/kg/injection, schedule: Q01DX009 (sc), vehicle: saline 100 % of control | dose: 0.4 mg/kg/injection, schedule: Q08HX010 (ip), vehicle: saline 99 % of control | dose: 0.78 mg/kg/injection, schedule: Q01DX005 (iv), vehicle: saline 104 % of control | dose: 0.78 mg/kg/injection, schedule: Q01DX009 (im), vehicle: saline 104 % of control | dose: 0.78 mg/kg/injection, schedule: Q01DX009 (oral), vehicle: saline 100 % of control and 95 % of control | dose: 0.78 mg/kg/injection, schedule: Q01DX009 (sc), vehicle: saline 109 % of control | dose: 1.56 mg/kg/injection, schedule: Q01DX005 (iv), vehicle: saline 104 % of control | dose: 1.56 mg/kg/injection, schedule: Q01DX009 (im), vehicle: saline 100 % of control | dose: 1.56 mg/kg/injection, schedule: Q01DX009 (oral), vehicle: saline 100 % of control and 104 % of control | dose: 1.56 mg/kg/injection, schedule: Q01DX009 (sc), vehicle: saline 100 % of control | dose: 3.13 mg/kg/injection, schedule: Q01DX005 (iv), vehicle: saline 104 % of control | dose: 3.13 mg/kg/injection, schedule: Q01DX009 (im), vehicle: saline 104 % of control | dose: 3.13 mg/kg/injection, schedule: Q01DX009 (oral), vehicle: saline 100 % of control and 116 % of control | dose: 3.13 mg/kg/injection, schedule: Q01DX009 (sc), vehicle: saline 100 % of control | dose: 6.25 mg/kg/injection, schedule: Q01DX005 (iv), vehicle: saline 104 % of control | dose: 6.25 mg/kg/injection, schedule: Q01DX009 (im), vehicle: saline 104 % of control | dose: 6.25 mg/kg/injection, schedule: Q01DX009 (oral), vehicle: saline 100 % of control and 112 % of control | dose: 6.25 mg/kg/injection, schedule: Q01DX009 (sc), vehicle: saline 95 % of control | dose: 10.0 mg/kg/injection, schedule: Q01DX005 (ip), vehicle: saline 100 % of control | dose: 12.5 mg/kg/injection, schedule: Q01DX005 (iv), vehicle: saline 104 % of control | dose: 12.5 mg/kg/injection, schedule: Q01DX009 (im), vehicle: saline 109 % of control | dose: 12.5 mg/kg/injection, schedule: Q01DX009 (oral), vehicle: saline 100 % of control and 108 % of control | dose: 12.5 mg/kg/injection, schedule: Q01DX009 (sc), vehicle: saline 104 % of control | dose: 20.0 mg/kg/injection, schedule: Q01DX005 (ip), vehicle: saline 100 % of control | dose: 25.0 mg/kg/injection, schedule: Q01DX005 (iv), vehicle: saline 104 % of control | dose: 25.0 mg/kg/injection, schedule: Q01DX009 (im), vehicle: saline 100 % of control | dose: 25.0 mg/kg/injection, schedule: Q01DX009 (oral), vehicle: saline 100 % of control and 104 % of control | dose: 25.0 mg/kg/injection, schedule: Q01DX009 (sc), vehicle: saline 100 % of control | dose: 40.0 mg/kg/injection, schedule: Q01DX005 (ip), vehicle: saline 103 % of control | dose: 50.0 mg/kg/injection, schedule: Q01DX005 (iv), vehicle: saline 117 % of control | dose: 50.0 mg/kg/injection, schedule: Q01DX009 (im), vehicle: saline 109 % of control | dose: 50.0 mg/kg/injection, schedule: Q01DX009 (oral), vehicle: saline 100 % of control and 108 % of control | dose: 50.0 mg/kg/injection, schedule: Q01DX009 (sc), vehicle: saline 100 % of control | dose: 60.0 mg/kg/injection, schedule: Q01DX005 (ip), vehicle: saline 100 % of control | dose: 100.0 mg/kg/injection, schedule: Q01DX005 (iv), vehicle: saline 100 % of control | dose: 100.0 mg/kg/injection, schedule: Q01DX009 (im), vehicle: saline 104 % of control | dose: 100.0 mg/kg/injection, schedule: Q01DX009 (oral), vehicle: saline 100 % of control | dose: 100.0 mg/kg/injection, schedule: Q01DX009 (sc), vehicle: saline 100 % of control | dose: 120.0 mg/kg/injection, schedule: Q01DX005 (ip), vehicle: saline 102 % of control | dose: 200.0 mg/kg/injection, schedule: Q01DX005 (iv), vehicle: saline 104 % of control | dose: 200.0 mg/kg/injection, schedule: Q01DX009 (im), vehicle: saline 104 % of control | dose: 200.0 mg/kg/injection, schedule: Q01DX009 (oral), vehicle: saline 100 % of control and 104 % of control | dose: 200.0 mg/kg/injection, schedule: Q01DX009 (sc), vehicle: saline 90 % of control | dose: 250.0 mg/kg/injection, schedule: Q01DX005 (ip), vehicle: saline 86 % of control | dose: 300.0 mg/kg/injection, schedule: Q08HX010 (ip), vehicle: saline 99 % of control | dose: 400.0 mg/kg/injection, schedule: Q01DX005 (iv), vehicle: saline 100 % of control | dose: 400.0 mg/kg/injection, schedule: Q01DX009 (im), vehicle: saline 100 % of control | dose: 400.0 mg/kg/injection, schedule: Q01DX009 (ip), vehicle: saline 110 % of control and 77 % of control | dose: 400.0 mg/kg/injection, schedule: Q01DX009 (oral), vehicle: saline 108 % of control and 95 % of control | dose: 400.0 mg/kg/injection, schedule: Q01DX009 (sc), vehicle: saline 104 % of control | dose: 500.0 mg/kg/injection, schedule: Q01DX005 (ip), vehicle: saline 86 % of control | dose: 600.0 mg/kg/injection, schedule: Q08HX010 (ip), vehicle: saline 102 % of control and 94 % of control | dose: 800.0 mg/kg/injection, schedule: Q01DX009 (im), vehicle: saline 100 % of control | dose: 800.0 mg/kg/injection, schedule: Q01DX009 (ip), vehicle: saline 99 % of control and 94 % of control | dose: 800.0 mg/kg/injection, schedule: Q01DX009 (oral), vehicle: saline 100 % of control and 108 % of control | dose: 800.0 mg/kg/injection, schedule: Q01DX009 (sc), vehicle: saline 95 % of control | dose: 1000.0 mg/kg/injection, schedule: Q01DX005 (ip), vehicle: saline 87 % of control | dose: 1200.0 mg/kg/injection, schedule: Q01DX009 (ip), vehicle: saline 110 % of control | dose: 1200.0 mg/kg/injection, schedule: Q08HX010 (ip), vehicle: saline 101 % of control and 94 % of control | dose: 1600.0 mg/kg/injection, schedule: Q01DX009 (im), vehicle: saline 100 % of control | dose: 1600.0 mg/kg/injection, schedule: Q01DX009 (ip), vehicle: saline 102 % of control and 61 % of control | dose: 1600.0 mg/kg/injection, schedule: Q01DX009 (oral), vehicle: saline 100 % of control and 91 % of control | dose: 1600.0 mg/kg/injection, schedule: Q01DX009 (sc), vehicle: saline 104 % of control

Cc1nn(-c2ccccc2)c(N)c1C#N
inactive: dose: 50.0 mg/kg/injection, schedule: Q04DX003 (ip), vehicle: Klucel (hydroxypropylcellulose) (HPC) 104 % of control | dose: 100.0 mg/kg/injection, schedule: Q04DX003 (ip), vehicle: Klucel (hydroxypropylcellulose) (HPC) 107 % of control | dose: 200.0 mg/kg/injection, schedule: Q04DX003 (ip), vehicle: Klucel (hydroxypropylcellulose) (HPC) 106 % of control | dose: 400.0 mg/kg/injection, schedule: Q04DX003 (ip), vehicle: Klucel (hydroxypropylcellulose) (HPC) 104 % of control
